ChEMBL document CHEMBL4699645 (2020)
Where a SMILES comes first, the peptide text is derived from it. Bridges are numbered along the chain shown (N, C = ends).

Key:
[1] = Displacement of [125I]-alpha-bungarotoxin from Aplysia californica C-terminal His6-tagged N-terminal gp67 signal peptide-tagged acetylcholine receptor binding protein expressed in Hi5 insect cells preincubated for 3 hrs followed by [125I]-alpha-bungarotoxin measured after 5 mins by radioligand binding assay
[2] = Antagonist activity at rat alpha3beta2 nAChR D115N mutant expressed in Xenopus laevis oocytes assessed as inhibition of Ach-induced response at -70 mV holding potential measured after 5 mins by voltage-clamp assay; format: cell-based; conditions: Oocyte
[3] = Antagonist activity at rat alpha3beta2 nAChR L169M mutant expressed in Xenopus laevis oocytes assessed as inhibition of Ach-induced response at -70 mV holding potential measured after 5 mins by voltage-clamp assay; format: cell-based; conditions: Oocyte
[4] = system: Oocyte; assay: Antagonist activity at rat alpha3beta2 nAChR S108T mutant expressed in Xenopus laevis oocytes assessed as inhibition of Ach-induced response at 1 uM at -70 mV holding potential measured after 5 mins by voltage-clamp assay relative to control; format: cell-based
[5] = system: Oocyte; assay: Antagonist activity at rat alpha3beta2 nAChR S168I mutant expressed in Xenopus laevis oocytes assessed as inhibition of Ach-induced response at 10 nM at -70 mV holding potential measured after 5 mins by voltage-clamp assay relative to control; format: cell-based; conditions: filed as antagonist
[6] = Antagonist activity at rat alpha3beta2 nAChR Y114S mutant expressed in Xenopus laevis oocytes assessed as inhibition of Ach-induced response at -70 mV holding potential measured after 5 mins by voltage-clamp assay; format: cell-based; conditions: Oocyte
[7] = molecular target: T1, Neuronal acetylcholine receptor; alpha3/beta2 (Rattus norvegicus) (UniProt P04757+P12390); assay: Antagonist activity at wild type rat alpha3beta2 nAChR expressed in Xenopus laevis oocytes assessed as inhibition of Ach-induced response at 1 uM at -70 mV holding potential measured after 5 mins by voltage-clamp assay relative to control; format: cell-based; conditions: Oocyte, filed as antagonist
[8] = Antagonist activity at rat alpha3beta2 nAChR V166T mutant expressed in Xenopus laevis oocytes assessed as inhibition of Ach-induced response at -70 mV holding potential measured after 5 mins by voltage-clamp assay; format: cell-based; conditions: Oocyte
[9] = Antagonist activity at rat alpha3beta2 nAChR S168I mutant expressed in Xenopus laevis oocytes assessed as inhibition of Ach-induced response at -70 mV holding potential measured after 5 mins by voltage-clamp assay; format: cell-based; conditions: Oocyte
[10] = system: Oocyte; assay: Antagonist activity at rat alpha3beta2 nAChR S113R mutant expressed in Xenopus laevis oocytes assessed as inhibition of Ach-induced response at 10 nM at -70 mV holding potential measured after 5 mins by voltage-clamp assay relative to control; format: cell-based; conditions: filed as antagonist
[11] = molecular target: T1, Neuronal acetylcholine receptor; alpha3/beta2 (Rattus norvegicus); assay: Antagonist activity at rat wild-type alpha3beta2 nAChR expressed in Xenopus laevis oocytes assessed as inhibition of Ach-induced response at 10 nM at -70 mV holding potential measured after 5 mins by voltage-clamp assay relative to control; format: cell-based; conditions: Oocyte
[12] = system: Oocyte; assay: Antagonist activity at rat alpha3beta2 nAChR F106V mutant expressed in Xenopus laevis oocytes assessed as inhibition of Ach-induced response at 1 uM at -70 mV holding potential measured after 5 mins by voltage-clamp assay relative to control; format: cell-based; conditions: filed as antagonist
[13] = Antagonist activity at rat alpha3beta2 nAChR S108T mutant expressed in Xenopus laevis oocytes assessed as inhibition of Ach-induced response at -70 mV holding potential measured after 5 mins by voltage-clamp assay; format: cell-based; conditions: Oocyte
[14] = Antagonist activity at rat alpha3beta2 nAChR D165P mutant expressed in Xenopus laevis oocytes assessed as inhibition of Ach-induced response at -70 mV holding potential measured after 5 mins by voltage-clamp assay; format: cell-based; conditions: Oocyte
[15] = Antagonist activity at rat alpha3beta2 nAChR A110V mutant expressed in Xenopus laevis oocytes assessed as inhibition of Ach-induced response at -70 mV holding potential measured after 5 mins by voltage-clamp assay; format: cell-based; conditions: Oocyte
[16] = Antagonist activity at rat alpha3beta2 nAChR S113R mutant expressed in Xenopus laevis oocytes assessed as inhibition of Ach-induced response at -70 mV holding potential measured after 5 mins by voltage-clamp assay; format: cell-based; conditions: Oocyte
[17] = Antagonist activity at rat alpha3beta2 nAChR F106V mutant expressed in Xenopus laevis oocytes assessed as inhibition of Ach-induced response at -70 mV holding potential measured after 5 mins by voltage-clamp assay; format: cell-based; conditions: Oocyte
[18] = species on record: Rattus norvegicus; assay: Selectivity index, ratio of IC50 for rat alpha3beta4 nAChR expressed in Xenopus laevis oocytes to IC50 for rat alpha3beta2 nAChR expressed in Xenopus laevis oocytes; format: cell-based
[19] = molecular target: Neuronal acetylcholine receptor; alpha3/beta4 (Rattus norvegicus) (UniProt P04757+P12392); assay: Antagonist activity at rat alpha3beta4 nAChR expressed in Xenopus laevis oocytes assessed as inhibition of Ach-induced response at -70 mV holding potential incubated for 5 mins by voltage-clamp assay relative to LvIA IC50; format: cell-based; conditions: Oocyte
[20] = molecular target: Neuronal acetylcholine receptor; alpha3/beta2 (Rattus norvegicus, UniProt P04757+P12390); assay: Antagonist activity at rat alpha3beta2 nAChR expressed in Xenopus laevis oocytes assessed as inhibition of Ach-induced response at -70 mV holding potential incubated for 5 mins by voltage-clamp assay; format: cell-based, Oocyte
Neuronal acetylcholine receptor; alpha3/beta2, sequence (P04757 whole entry): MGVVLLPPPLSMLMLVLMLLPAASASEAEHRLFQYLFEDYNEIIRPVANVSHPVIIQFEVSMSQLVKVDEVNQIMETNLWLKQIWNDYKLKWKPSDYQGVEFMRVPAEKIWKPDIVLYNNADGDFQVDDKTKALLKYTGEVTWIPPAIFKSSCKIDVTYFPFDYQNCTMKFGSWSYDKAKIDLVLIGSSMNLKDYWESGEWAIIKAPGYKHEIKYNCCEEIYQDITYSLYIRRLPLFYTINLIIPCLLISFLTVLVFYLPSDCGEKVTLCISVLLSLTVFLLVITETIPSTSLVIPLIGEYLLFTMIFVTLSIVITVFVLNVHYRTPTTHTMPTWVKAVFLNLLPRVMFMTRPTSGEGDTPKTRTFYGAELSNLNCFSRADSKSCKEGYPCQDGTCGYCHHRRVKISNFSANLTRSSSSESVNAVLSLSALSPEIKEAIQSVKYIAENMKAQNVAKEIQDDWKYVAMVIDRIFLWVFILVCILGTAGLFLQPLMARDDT
Neuronal acetylcholine receptor; alpha3/beta2, sequence (P12390 whole entry): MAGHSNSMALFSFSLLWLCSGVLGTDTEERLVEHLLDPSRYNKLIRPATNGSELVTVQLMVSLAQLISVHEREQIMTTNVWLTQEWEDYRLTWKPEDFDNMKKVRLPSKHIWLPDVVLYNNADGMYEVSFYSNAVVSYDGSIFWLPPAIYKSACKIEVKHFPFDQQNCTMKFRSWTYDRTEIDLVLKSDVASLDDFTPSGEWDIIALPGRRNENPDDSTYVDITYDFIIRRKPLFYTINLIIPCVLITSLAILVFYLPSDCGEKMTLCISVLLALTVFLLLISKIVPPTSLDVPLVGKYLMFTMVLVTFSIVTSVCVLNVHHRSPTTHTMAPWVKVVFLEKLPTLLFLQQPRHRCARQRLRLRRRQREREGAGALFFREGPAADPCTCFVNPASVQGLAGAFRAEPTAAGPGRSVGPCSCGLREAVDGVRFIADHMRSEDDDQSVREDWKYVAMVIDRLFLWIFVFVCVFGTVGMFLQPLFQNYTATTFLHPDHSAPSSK

[21] = molecular target: Neuronal acetylcholine receptor; alpha3/beta4 (Rattus norvegicus, UniProt P04757+P12392); assay: Antagonist activity at rat alpha3beta4 nAChR expressed in Xenopus laevis oocytes assessed as inhibition of Ach-induced response at -70 mV holding potential incubated for 5 mins by voltage-clamp assay; format: cell-based, Oocyte
Neuronal acetylcholine receptor; alpha3/beta4, sequence (P04757 whole entry): as the sequence (P04757 whole entry) above
Neuronal acetylcholine receptor; alpha3/beta4, sequence (P12392 whole entry): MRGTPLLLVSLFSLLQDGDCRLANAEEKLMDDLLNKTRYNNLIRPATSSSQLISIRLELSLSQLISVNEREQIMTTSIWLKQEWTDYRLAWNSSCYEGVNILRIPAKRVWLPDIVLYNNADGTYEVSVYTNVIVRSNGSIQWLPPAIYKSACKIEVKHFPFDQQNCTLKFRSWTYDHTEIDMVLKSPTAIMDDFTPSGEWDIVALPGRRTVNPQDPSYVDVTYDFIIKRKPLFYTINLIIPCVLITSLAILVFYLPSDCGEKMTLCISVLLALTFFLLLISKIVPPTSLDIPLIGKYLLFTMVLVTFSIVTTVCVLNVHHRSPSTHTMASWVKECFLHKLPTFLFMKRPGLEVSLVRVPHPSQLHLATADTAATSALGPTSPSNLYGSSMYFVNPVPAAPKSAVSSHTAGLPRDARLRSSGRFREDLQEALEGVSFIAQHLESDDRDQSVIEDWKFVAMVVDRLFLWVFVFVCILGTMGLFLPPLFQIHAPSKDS

[22] = molecular target: T1, Neuronal acetylcholine receptor; alpha3/beta2 (Rattus norvegicus); assay: Antagonist activity at rat alpha3beta2 nAChR expressed in Xenopus laevis oocytes assessed as inhibition of Ach-induced response by measuring recovery of ACh-induced response time at 10 nM with -70 mV holding potential measured after 5 mins voltage-clamp assay; format: cell-based; conditions: Oocyte
[23] = system: Hi-5; assay: Displacement of [125I]-alpha-bungarotoxin from Aplysia californica C-terminal His6-tagged N-terminal gp67 signal peptide-tagged acetylcholine receptor binding protein expressed in Hi5 insect cells preincubated for 3 hrs followed by [125I]-alpha-bungarotoxin measured after 5 mins by radioligand binding assay relative to LvIA IC50; conditions: time 185.0 min
[24] = system: Oocyte; assay: Antagonist activity at rat alpha3beta2 nAChR S168I mutant expressed in Xenopus laevis oocytes assessed as inhibition of Ach-induced response by measuring recovery of ACh-induced response time at 10 nM with -70 mV holding potential measured after 5 mins voltage-clamp assay; format: cell-based
[25] = molecular target: T1, Neuronal acetylcholine receptor; alpha3/beta2 (Rattus norvegicus); assay: Antagonist activity at rat alpha3beta2 nAChR expressed in Xenopus laevis oocytes assessed as inhibition of Ach-induced response at -70 mV holding potential incubated for 5 mins by voltage-clamp assay relative to LvIA IC50; format: cell-based; conditions: Oocyte

| SMILES | IC50 [1] | IC50 [9] | Ratio IC50 [18] | Ratio IC50 [19] | IC50 [20] | IC50 [21] | Ratio IC50 [23] | Ratio IC50 [25] | further results |
| --- | --- | --- | --- | --- | --- | --- | --- | --- | --- |
| CC[C@H](C)[C@@H]1NC(=O)[C@H](CCC(=O)O)NC(=O)[C@@H]2CCCN2C(=O)[C@H](Cc2cnc[nH]2)NC(=O)[C@H](CC(=O)O)NC(=O)[C@H](C(C)C)NC(=O)[C@H](CC(N)=O)NC(=O)[C@@H]2CSSC[C@H](NC(=O)CN)C(=O)N[C@@H](CSSC[C@@H](C(N)=O)NC1=O)C(=O)N[C@@H](CO)C(=O)N[C@@H](Cc1cnc[nH]1)C(=O)N1CCC[C@H]1C(=O)N[C@@H](C)C(=O)N2 | 2300 nM | 0.7 nM | – | – | – | – | – | – | IC50 [2]: 23.6 nM; IC50 [3]: 29.6 nM; inhibition [4]: 33.4%; inhibition [5]: 94.6%; IC50 [6]: 31.3 nM; inhibition [7]: 94.4%; IC50 [8]: 31.8 nM; inhibition [10]: 91.9%; inhibition [11]: 28.8%; inhibition [12]: 55%; IC50 [13]: 1660 nM; IC50 [14]: 16.6 nM; IC50 [15]: 54 nM; IC50 [16]: 4.1 nM; IC50 [17]: 401 nM |
| CC[C@H](C)[C@@H]1NC(=O)[C@H](CCC(=O)O)NC(=O)[C@@H]2CCCN2C(=O)[C@H](Cc2cnc[nH]2)NC(=O)[C@H](CC(=O)O)NC(=O)[C@H](C(C)C)NC(=O)[C@H](C)NC(=O)[C@@H]2CSSC[C@H](NC(=O)CN)C(=O)N[C@@H](CSSC[C@@H](C(N)=O)NC1=O)C(=O)N[C@@H](CO)C(=O)N[C@@H](Cc1cnc[nH]1)C(=O)N1CCC[C@H]1C(=O)N[C@@H](C)C(=O)N2 (H-GCCSHPACAVDHPEIC-NH2; disulfide 2-8, 3-16) | 760 nM | 0.66 nM | 2030 | 14.7 | 2.1 nM | 4270 nM | -0.48 | 0.13 | TIME [22]: 0.0167 h; TIME [24]: > 0.333 h |
| CC[C@H](C)[C@@H]1NC(=O)[C@H](CCC(=O)O)NC(=O)[C@@H]2CCCN2C(=O)[C@H](Cc2cnc[nH]2)NC(=O)[C@H](C)NC(=O)[C@H](C(C)C)NC(=O)[C@H](CC(N)=O)NC(=O)[C@@H]2CSSC[C@H](NC(=O)CN)C(=O)N[C@@H](CSSC[C@@H](C(N)=O)NC1=O)C(=O)N[C@@H](CO)C(=O)N[C@@H](Cc1cnc[nH]1)C(=O)N1CCC[C@H]1C(=O)N[C@@H](C)C(=O)N2 (H-GCCSHPACNVAHPEIC-NH2; disulfide 2-8, 3-16) | 94 nM | – | 5.7 | 0.2 | 12 nM | 67.9 nM | -1.39 | 0.8 | – |
| CC[C@H](C)[C@@H]1NC(=O)[C@H](CCC(=O)O)NC(=O)[C@@H]2CCCN2C(=O)[C@H](Cc2cnc[nH]2)NC(=O)[C@H](CC(=O)O)NC(=O)[C@H](C(C)C)NC(=O)[C@H](CC(N)=O)NC(=O)[C@@H]2CSSC[C@H](NC(=O)CN)C(=O)N[C@@H](CSSC[C@@H](C(N)=O)NC1=O)C(=O)N[C@@H](C)C(=O)N[C@@H](Cc1cnc[nH]1)C(=O)N1CCC[C@H]1C(=O)N[C@@H](C)C(=O)N2 (H-GCCAHPACNVDHPEIC-NH2; disulfide 2-8, 3-16) | 780 nM | – | 3.6 | 0.7 | 54 nM | 193 nM | -0.47 | 3.5 | – |
| CC[C@H](C)[C@@H]1NC(=O)[C@H](CCC(=O)O)NC(=O)[C@@H]2CCCN2C(=O)[C@H](Cc2cnc[nH]2)NC(=O)[C@H](CC(=O)O)NC(=O)[C@H](C(C)C)NC(=O)[C@H](CC(N)=O)NC(=O)[C@@H]2CSSC[C@H](NC(=O)[C@H](C)N)C(=O)N[C@@H](CSSC[C@@H](C(N)=O)NC1=O)C(=O)N[C@@H](CO)C(=O)N[C@@H](Cc1cnc[nH]1)C(=O)N1CCC[C@H]1C(=O)N[C@@H](C)C(=O)N2 (H-ACCSHPACNVDHPEIC-NH2; disulfide 2-8, 3-16) | 11800 nM | – | 2.6 | 3.4 | 375 nM | 975 nM | 0.71 | 24 | – |
